Results reported in US6576422B1, “Method for identifying products employing gene expression” (Rohm and Haas Company, priority 2000, dated 2003).

Legend:
L57 cells = experiment: Insect cell-based marker ligand assay (EcR gene switch, β-galactosidase reporter), L57 cells; settings: Drosophila melanogaster, 48 h, read-out: L57 Cells (Fold Induction)
BRL-AG2 cells = experiment: Insect cell-based marker ligand assay (EcR gene switch, β-galactosidase reporter), BRL-AG2 cells; settings: 48 h
[1] = read-out: BRL-AG2 (Fold Induction)
[2] = read-out: BRL-AG2 Cells (Fold Induction)

Compound `COc1cccc(C(=O)NN(C(=O)c2cc(C)cc(C)c2)C(C)(C)C)c1C` [Marker, N′-tert-butyl-N′-(3 ,5-dimethylbenzoyl)-3-methoxy-2-methylbenzohydrazide] has a fold induction at 0.07 µg/mL (L57 cells) of 27, a fold induction at 0.12 µg/mL (L57 cells) of 1 and a fold induction at 0.69 µg/mL (L57 cells) of 46. It also gave a fold induction at 1.2 µg/mL (L57 cells) of 23, a fold induction at 6.95 µg/mL (L57 cells) of 63 and a fold induction at 12 µg/mL (L57 cells) of 30. The fold induction at 0.12 µg/mL (BRL-AG2 cells; [1]) was 16, the fold induction at 1.2 µg/mL (BRL-AG2 cells; [1]) was 21 and the fold induction at 12 µg/mL (BRL-AG2 cells; [1]) was 31. It also gave a fold induction at 0.07 µg/mL (BRL-AG2 cells; [2]) of 151, a fold induction at 0.69 µg/mL (BRL-AG2 cells; [2]) of 182 and a fold induction at 6.95 µg/mL (BRL-AG2 cells; [2]) of 202.
